# Target: T1, Human tyrosinase (Homo sapiens, UniProt P14679)
# T1 construct: Normal human melanocytes (originating from abdominal plasty) are sown in a 24-well plate; endogenous in cells; host or cells: normal human melanocytes (abdominal plasty; donors of light, brown and black phototype)
# T1 sequence (P14679 19-529): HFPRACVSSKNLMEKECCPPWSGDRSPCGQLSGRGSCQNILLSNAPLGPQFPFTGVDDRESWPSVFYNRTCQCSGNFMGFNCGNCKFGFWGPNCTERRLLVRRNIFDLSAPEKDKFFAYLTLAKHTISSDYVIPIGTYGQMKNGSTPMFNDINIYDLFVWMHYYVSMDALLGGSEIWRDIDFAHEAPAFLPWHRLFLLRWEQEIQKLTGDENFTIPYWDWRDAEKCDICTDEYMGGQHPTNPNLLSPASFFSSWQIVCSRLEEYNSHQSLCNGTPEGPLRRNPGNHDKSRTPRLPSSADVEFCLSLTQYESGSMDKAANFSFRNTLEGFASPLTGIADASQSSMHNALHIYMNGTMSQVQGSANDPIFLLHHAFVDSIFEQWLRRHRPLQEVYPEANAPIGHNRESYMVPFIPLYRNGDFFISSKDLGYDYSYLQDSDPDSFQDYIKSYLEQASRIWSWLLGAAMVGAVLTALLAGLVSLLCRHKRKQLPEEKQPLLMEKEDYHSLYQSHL
# Experiment: Inhibition of human tyrosinase in a monolayer after application of the actives on normal human melanocytes
# Assay type: cell-based
# Conditions: 24 hours
# Procedure: Normal human melanocytes (originating from abdominal plasty) are sown in a 24-well plate at the rate of 80,000 cells per well. They are cultivated up to confluence and the actives are applied for 24 hours in the culture media. After 24 hours, the media are removed and the melanocytes are picked up by mechanical action. An extraction is made by heat shock and the supernatants are then recovered and then incubated with MBTH (Sigma) and L-Dopa (Sigma). The OD at 490 nm is measured after 30 minutes, and the inhibition is of the tyrosinase is calculated by comparing the OD at 490 nm to the protein level (measured in each culture well) of the test with respect to the ratio: OD 490 nm/concentration of protein of the negative control (non-treated control). […]
SMILES,"Inhibition of human tyrosinase after application on normal human melanocytes, percentage inhibition (10^−4M)","Inhibition of human tyrosinase after application on normal human melanocytes, percentage inhibition (10^−5M)"
"COc1cc(OC)c2c(c1)O/C(=C\c1cccs1)C2=O [Example 5p, (Z)-4,6-Dimethoxy-2-[(thiophene)methylene]benzofuran-3(2H)-one]",31.3%,6.4%
"CCc1ccc(/C=C2\Oc3cc(O)cc(O)c3C2=O)s1 [Example 7r, (Z)-4,6-Dihydroxy-2-[(5-ethylthiophene)methylene]benzofuran-3(2H)-one]",13.8%,0%
"COc1cc(OC)c2c(c1)O/C(=C\c1[nH]c(C)cc1C)C2=O [Example 5t, (Z)-4,6-Dimethoxy-2-[(3,5-dimethylpyrrole)methylene]benzofuran-3(2H)-one]",5.1%,0%
CC(C)c1ccc(/C=C2\Oc3cc(O)cc(O)c3C2=O)cc1 [Example 7i],0%,31.86%
"COc1cc(OC)c2c(c1)O/C(=C\c1ccc(C)s1)C2=O [Example 5q, (Z)-4,6-Dimethoxy-2-[(5-methylthiophene)methylene]benzofuran-3(2H)-one]",4.8%,0%
"Cc1ccc(/C=C2\Oc3cc(O)cc(O)c3C2=O)s1 [Example 7q, (Z)-4,6-Dihydroxy-2-[(5-methylthiophene)methylene]benzofuran-3(2H)-one]",16.4%,7%
"CCc1ccc(/C=C2\Oc3cc(OC)cc(OC)c3C2=O)s1 [Example 5r, (Z)-4,6-Dimethoxy-2-[(5-ethylthiophene)methylene]benzofuran-3(2H)-one]",11.9%,2.1%
"COc1cc(OC)c2c(c1)O/C(=C\c1ccc(S(=O)(=O)O)cc1)C2=O [Example 5e, (Z)-4,6-dimethoxy-2-(4′-sulfonatebenzylidene)benzofuran-3(2H)-one]",0%,1.44%
"O=C1/C(=C/c2ccco2)Oc2cc(O)cc(O)c21 [Example 7m, (Z)-4,6-Dihydroxy-2-[(furan)methylene]benzofuran-3(2H)-one]",23.6%,6.4%
CC(C)(C)c1ccc(/C=C2\Oc3cc(O)cc(O)c3C2=O)cc1 [Example 7k],0%,25.1%
O=C1/C(=C/c2ccc(S(=O)(=O)O)cc2)Oc2cc(O)cc(O)c21 [Example 7e],0%,4.83%
"O=C1/C(=C/c2ccc[nH]2)Oc2cc(O)cc(O)c21 [Example 7s, (Z)-4,6-Dihydroxy-2-[(pyrrole)methylene]benzofuran-3(2H)-one]",22.8%,9.1%
CCc1ccccc1/C=C1\Oc2cc(O)cc(O)c2C1=O [Example 7l],0%,6.1%
"COc1cc(OC)c2c(c1)O/C(=C\c1cc(C)c(C)o1)C2=O [Example 5o, (Z)-4,6-Dimethoxy-2-[(4,5-dimethylfuran)methylene]benzofuran-3(2H)-one]",23.2%,12.1%

# From patent US20060228313A1, “Method of cosmetic depigmentation care by applying at least one aurone” (Coletica, priority 2005, published 2006)
